# Source: paper PMC9108603, “Microbial Metabolite Inspired β‐Peptide Polymers Displaying Potent and Selective Antifungal Activity” (Advanced Science, 2022)
# Read-outs that look alike come from different tables or passages of the source.
# Key:
# C. albicans [1] = test: MFC assay, plating after the MIC test; assay type: cell-based; conditions: Candida albicans; also: kills > 99.9%
# Description: (§1) In vitro antifungal assays. The MIC assays for C. albicans (K1, SC5314, Gu5, ATCC90028, R01, R02, R03 and R04 strains) and C. neoformans (H99, MYA737 and JEC21 strains) were conducted according to a previously described protocol. The cultured fungal cells were collected at 2.5 × 10^3 CFU/mL in RPMI 1640 medium to give the working suspension. Two- […]
# (§2) Then 50 µL of the cell suspension was added to each well. Wells containing cells in RPMI without any polymer or antifungal drug were used as drug-free controls, and wells containing RPMI medium only were used as cell-free controls. The plate was gently stirred for 10 seconds and then incubated at 30 °C. After C. albicans and C. neoformans cells were incubated for 24 h and 48 h, respectively, fungal cell growth was checked visually. The MIC values were identified as the lowest concentration […]
# (§3) The MFC assay for Candida and Cryptococcus was conducted after the MIC test.
# (§4) An aliquot of 3 µL premixed suspension from each well was plated on the yeast extract-peptone-dextrose (YPD) agar. The plates were incubated at 30 °C for 24 h and 48 h, respectively, for C. albicans cells and C. neoformans cells. Then the plate was inspected visually for colony formation. […]
# C. neoformans [2] = test: MFC assay, plating after the MIC test; assay type: cell-based; conditions: Cryptococcus neoformans, 48 h; also: kills > 99.9%
# Description: as §1, §2, §3, §4
# C. albicans [3] = test: MIC assay (in vitro antifungal assay); assay type: cell-based, Candida albicans
# Description: as §1
# as §2, with “visually.” for “visually. The MIC values were identified as the lowest concentration”
# C. neoformans [4] = test: MIC assay (in vitro antifungal assay); assay type: cell-based; conditions: Cryptococcus neoformans, 48 h
# Description: as §1
# as §2, with “plate to give 50 µL compound solution in each well. Then” for “Then”, “visually.” for “visually. The MIC values were identified as the lowest concentration”
# C. albicans (R02 strain) = test: microbe, parasite or virus in culture; assay type: cell-based, Candida albicans; conditions: for MIC50: Candida albicans
# Description: Drug resistance studies. Drug resistance was induced by treating the C. albicans (R02 strain) repeatedly with antifungal agents. […]
# albicans were tested for 30 passages of growth, which is long enough and adopted by many studies. C. albicans exposed to the 1/2 MIC concentration at the particular passage were re-grown to a logarithmic growth phrase and re-used for the subsequent passage’s MIC measurement for the same antifungal agent. Drug-resistant behavior of C. albicans was evaluated by recording the changes in the MIC compared to the original passage. All measurements were performed in duplicates. […]
# [5] = test system: endothelial cells (HUVEC); test: Cytotoxicity, MTT assay; assay type: cell-based, human; conditions: 24 h, 37 °C, 800 to 1.6 μg/mL, 50% cell viability
# Description: (§5) Cytotoxicity assay. Cytotoxicity tests were performed on NIH 3T3 fibroblast cells, endothelial cells (HUVEC), macrophage (RAW264.7), liver cells (LO2), kidney cells (COS7) and enterocyte (NCM-460) using MTT assay. Cells were cultured in DMEM supplemented with 10% FBS, 5% penicillin, 2 mM L-glutamine and incubated at 37 °C in 5% CO 2. Cells were harvested and seeded onto 96-well plates at a density of 1.0 × 10^4 cells per well and incubated for 24 h. On each plate, wells containing growth medium only and cells in growth medium without any antifungal agent were used as the negative and positive control, […]
# (§6) concentrations ranging from 800 to 1.6 μg/mL. Medium in each cell-containing well was replaced with 100 μL of the corresponding polymer solution, and the plates were incubated at 37 °C for 24 h. Then, the solution in each well was switched to 100 µL MTT solution (1 mg/mL) and the plate was incubated in the dark at 37 °C for 4 h. […] Then 85 µL of the supernatant from each well was transferred to the corresponding well in a new plate, followed by absorbance measurement at 570 nm on a plate reader. […] The percentage of cell viability in each test well, relative to the positive control (which defines 100%) w as calculated from [% fibroblast growth = (A polymer – Ablank)/(Acontrol – A blank) × 100]. […]
# E. coli ATCC 25922 = test: Antibacterial MIC test; assay type: cell-based; conditions: 1.0 × 10^5 CFU/mL in MH medium
# Description: (§7) aforementioned antifungal assay. Gram-positive bacteria ( S. aureus ATCC 6538, S.
# [6] = test system: K. pneumoniae ATCC 700603; test: Antibacterial MIC test; assay type: cell-based; conditions: 1.0 × 10^5 CFU/mL in MH medium
# Description: as §7
# A. Baumannii ATCC 747 = test: Antibacterial MIC test; assay type: cell-based; conditions: 1.0 × 10^5 CFU/mL in MH medium
# Description: as §7
# [7] = test system: Gram‐positive and Gram‐negative bacteria; test: Antibacterial MIC test, summary over six bacteria; assay type: cell-based; conditions: S. aureus, S. epidermidis, B. subtilis, E. coli, A. baumannii, K. pneumoniae
# Description: as §7
# [8] = test system: S. epidermidis ATCC 49134; test: Antibacterial MIC test; assay type: cell-based; conditions: 1.0 × 10^5 CFU/mL in MH medium
# Description: as §7
# B. subtilis BR151 = test: Antibacterial MIC test; assay type: cell-based; conditions: 1.0 × 10^5 CFU/mL in MH medium
# Description: as §7
# S. aureus ATCC 6538 = test: Antibacterial MIC test; assay type: cell-based; conditions: 1.0 × 10^5 CFU/mL in MH medium
# Description: as §7
# various mammalian cells = test: Cytotoxicity, MTT assay, summary over cell types; assay type: cell-based; conditions: NIH 3T3, HUVEC, RAW264.7, LO2, COS7, NCM‐460, 24 h
# Description: as §5, §6
# human red blood cells = test: Hemolysis assay; conditions: human RBCs in TBS pH 7.2, 37 °C, 1 h, OD 405 nm, 2000 to 15.6 μg/mL, Triton X-100 as 100%
# Description: as §7
# The positive controls used in
# Then, 100 μL of the RBC working
# Molecular Devices Emax precision microplate reader. Measurements were performed in duplicate and repeated on three different days. The percentage of hemolysis at each polymer […]
# and plotted against polymer concentration to give the dose-response curves for hemolysis for each polymer. The HC 10 value for each polymer was defined as the polymer concentration to cause 10% lysis of RBCs. All measurements were performed with three replicates.
# Cytotoxicity assay. Cytotoxicity tests were performed on NIH 3T3 fibroblast cells, endothelial cells (HUVEC), macrophage (RAW264.7), liver cells (LO2), kidney cells (COS7) and enterocyte (NCM-460) using MTT assay. Cells were cultured in DMEM supplemented with 10% FBS, 5% penicillin, 2 mM L-glutamine and incubated at 37 °C in 5% CO 2. […]
# concentrations ranging from 800 to 1.6 μg/mL. […] Then 85 µL of the supernatant from each well was transferred to the corresponding well in a new plate, followed by absorbance measurement at 570 nm on a plate reader. […] The percentage of cell viability in each test well, relative to the positive control (which defines 100%) w as calculated from [% fibroblast growth = (A polymer – Ablank)/(Acontrol
molecule,measurement,setting,value
OC(Cn1cncn1)(Cn1cncn1)c1ccc(F)cc1F [fluconazole],MFC,"C. albicans [1]; 24 h, read-out: MFC C. albicans Gu5",> 200 µg/mL
same,MFC,"C. albicans [1]; 24 h, read-out: MFC C. albicans K1",> 200 µg/mL
same,MFC,"C. albicans [1]; 24 h, read-out: MFC C. albicans R01",> 200 µg/mL
same,MFC,"C. albicans [1]; 24 h, read-out: MFC C. albicans R02",> 200 µg/mL
same,MFC,"C. albicans [1]; 24 h, read-out: MFC C. albicans R03",> 200 µg/mL
same,MFC,"C. albicans [1]; 24 h, read-out: MFC C. albicans R04",> 200 µg/mL
same,MFC,"C. albicans [1]; ATCC90028, 24 h, read-out: MFC C. albicans ATCC90028",> 200 µg/mL
same,MFC,"C. albicans [1]; SC5314, 24 h, read-out: MFC C. albicans SC5314",> 200 µg/mL
same,MFC,C. neoformans [2]; read-out: MFC C. neoformans H99,6.3 µg/mL
same,MFC,C. neoformans [2]; read-out: MFC C. neoformans JEC21,12.5 µg/mL
same,MFC,C. neoformans [2]; read-out: MFC C. neoformans MYA737,6.3 µg/mL
same,MIC50,"C. albicans [3]; Candida albicans, 24 h, read-out: MIC50 (used for fluconazole) C. albicans Gu5",200 µg/mL
same,MIC50,"C. albicans [3]; Candida albicans, 24 h, read-out: MIC50 (used for fluconazole) C. albicans K1",0.4 µg/mL
same,MIC50,"C. albicans [3]; Candida albicans, 24 h, read-out: MIC50 (used for fluconazole) C. albicans R01",0.4 µg/mL
same,MIC50,"C. albicans [3]; Candida albicans, 24 h, read-out: MIC50 (used for fluconazole) C. albicans R02",0.4 µg/mL
same,MIC50,"C. albicans [3]; Candida albicans, 24 h, read-out: MIC50 (used for fluconazole) C. albicans R03",0.2 µg/mL
same,MIC50,"C. albicans [3]; Candida albicans, 24 h, read-out: MIC50 (used for fluconazole) C. albicans R04",0.2 µg/mL
same,MIC50,"C. albicans [3]; Candida albicans, ATCC90028, 24 h, read-out: MIC50 (used for fluconazole) C. albicans ATCC90028",0.2 µg/mL
same,MIC50,"C. albicans [3]; Candida albicans, SC5314, 24 h, read-out: MIC50 (used for fluconazole) C. albicans SC5314",50 µg/mL
same,MIC,"C. albicans [3]; Candida albicans, read-out: MIC of fluconazole (complete inhibition), all strains of C. albicans",> 200 µg/mL
same,MIC50,C. neoformans [4]; read-out: MIC50 (row marked fluconazole*) C. neoformans H99,6.3 µg/mL
same,MIC50,C. neoformans [4]; read-out: MIC50 (row marked fluconazole*) C. neoformans JEC21,12.5 µg/mL
same,MIC50,C. neoformans [4]; read-out: MIC50 (row marked fluconazole*) C. neoformans MYA737,6.3 µg/mL
same,Increase of MIC50 after 30 passages,"C. albicans (R02 strain); C. albicans R02, continuous treatment with 0.5 × MIC50",eightfolds
same,MIC50,C. albicans (R02 strain); read-out: MIC50 after 30 passages,1.6 µg/mL
same,MIC50,C. albicans (R02 strain); read-out: MIC50 before passaging,0.2 µg/mL
poly(DL‐diaminopropionic acid) [PDAP10],IC50 HUVEC,[5],675 µg/mL
polymyxin B,MIC E. coli,E. coli ATCC 25922,0.2 µg/mL
same,MIC K. pneumoniae,[6],0.8 µg/mL
same,MIC A. baumannii,A. Baumannii ATCC 747,0.2 µg/mL
ε‐poly‐lysine [ε-PL],MIC against the six bacteria (summary),[7],1.6 to 6.3 µg/mL
same,Effect of increasing K+ on antifungal activity,"C. albicans [3]; K+ up to 20 × 10^−3 M, C. albicans K1",didn't affect
same,"MIC C. albicans K1, standard MIC test in RPMI 1640","C. albicans [3]; Na+ 103 mM, K+ 5.4 mM",400 µg/mL
same,"MIC C. albicans K1, physiological salt concentration","C. albicans [3]; Na+ 150 mM, K+ 5.4 mM",1600 μg/mL
same,"MIC C. albicans K1, Na+ ↑","C. albicans [3]; Na+ 200 mM, K+ 5.4 mM",> 1600 µg/mL
same,MIC against C. albicans (Figure 1a),C. albicans [3]; approximate value printed in the design figure,~ 400 μg/mL
same,MIC against three strains of C. albicans (range),"C. albicans [3]; range over three strains, Figure 2d",200 to 400 µg/mL
same,MIC S. epidermidis,[8],3.1 µg/mL
same,MIC B. subtilis,B. subtilis BR151,1.6 µg/mL
same,MIC E. coli,E. coli ATCC 25922,6.3 µg/mL
same,MIC K. pneumoniae,[6],6.3 µg/mL
same,MIC A. baumannii,A. Baumannii ATCC 747,6.3 µg/mL
same,MIC S. aureus,S. aureus ATCC 6538,3.1 µg/mL
poly(DL‐diaminopropionic acid) [PDAP5],IC50 over six mammalian cell types (range),various mammalian cells,340 to 800 µg/mL
same,HC10 (concentration to cause 10% hemolysis),human red blood cells,1000 µg/mL
